Read-outs that look alike come from different tables or passages of the source.
What was measured:
[1] = Partition coefficient (logP) between aqueous buffer and octanol; details: phosphate/n-octanol
Description: As stated above, the opioid metabolites according to the invention are polar metabolites. As understood hereinafter the term “polar” means a higher polarity as compared to the unpolar moφhine. The polar nature of a compound can be determined by measuring its partition coefficient between an aqueous buffer and an organic solvent such as octanol. […] This depends on the specific system.

[2] = system: patients with pain treatment after surgery; assay: Meta analysis of four clinical studies with M6G pain treatment after surgery
Description: The four studies M6G001, M6G012, M6G015 and M6G022 are described in the following.
The following variables were included in the meta analysis:
Nausea (none, mild, moderate, severe)
Sedation (none, mild, moderate, severe)
Pain (none, mild, moderate, severe)

[3] = system: patients following hip-replacement surgery; assay: M6G001A study: post-operative analgesia following hip-replacement surgery; format: in vivo, human; details: all doses (10, 15, 20 mg/70 kg IV bolus followed by PCA)
Description: . This was a double-blind, randomised study. […]

[4] = system: patients following hip-replacement surgery; assay: M6G012 study: acute pain following hip-replacement surgery under general anaesthetic; format: in vivo, human; details: 30 mg/70 kg at skin closure, four hour post-operative period
[5] = Pharmacokinetics of M6G at single and multiple intravenous doses in healthy volunteers; format: in vivo, human; details: for MRT inf: read-out: MRT0-∞; for Vd: read-out: Vss; for half-life: read-out: t1/2 (converted)
Procedure: Healthy male and female subjects were divided into two groups (A and B) with 12 in each. Group A received three single intravenous infusions of M6G over 5 mins at levels of 15, 30 and 45 mg/70 kg in random order, having taken 50 mg of naloxone orally 24 hrs beforehand. There was a seven-day wash-out period between each dose. Blood samples were taken pre-dose and at the following time-points: 3, 5, 15, 30 mins and 1, 2, 3, 4, 6, 12 and 24 hrs after the start of the infusion. Group, B received five, 15 mg/70 kg, intravenous infusions of M6G, each over five minutes, at 6-hourly intervals, having taken a 50 mg oral dose of naloxone 24 hrs before the first infusion. Blood samples were taken before each of the 5 doses, and at 3, 5, 15, 30 mins and at 1, 2, 3 and 4 hrs after the initiation of the 1st and 5th infusions and at 6 hrs after the 5th dose. Vital signs (supine blood pressure, pulse, respiratory rate and oral temperature), respiration rate, pulse oximetry and adverse events were monitored during the study. Plasma levels of M6G were measured using HPLC/ms/ms.

[6] = both sexes, human, plasma, intravenous, 15 mg/70 kg, multiple dose, Dose 1-15 mg, Geometric Mean
[7] = both sexes, human, plasma, intravenous, 15 mg/70 kg, multiple dose, Dose 1-15 mg, Mean
[8] = both sexes, human, plasma, intravenous, 15 mg/70 kg, multiple dose, Dose 1-15 mg, Median
[9] = both sexes, human, plasma, intravenous, 15 mg/70 kg, multiple dose, Dose 5-15 mg, Geometric Mean
[10] = both sexes, human, plasma, intravenous, 15 mg/70 kg, multiple dose, Dose 5-15 mg, Mean
[11] = both sexes, human, plasma, intravenous, 15 mg/70 kg, multiple dose, Dose 5-15 mg, Median

With `CN1CC[C@]23c4c5ccc(O)c4O[C@H]2[C@@H](OC2OC(C(=O)O)C(O)C(O)C2O)C=CC3[C@H]1C5` (stereo partly drawn) [M6G, (5α,6α)-7,8-Didehydro-4,5-epoxy-3-hydroxy-17-methylmorphinan-β-yl-β-D-glucopyranosiduronic acid] the logP [1] was -2.4, the “patients with moderate to severe sedation” value ([2]; human, in vivo, intravenous) was 63.5% and the “patients with moderate to severe pain” value ([2]; time window 0 to 6 hours) was 50.5%. For the same compound, the “patients with moderate to severe pain” value ([2]; time window 6-24 hours) was 19.1%, the “patients with moderate to severe nausea” value ([2]; worst assessment) was 23.9% and the patients with vomiting ([2]; worst assessment) was 26.0%. The tolerability [3] was “well tolerated”, the “pain (VAS) compared with 10 mg/70 kg morphine at skin closure” value [4] was “non-inferior” and the “average peak concentrations higher following Dose 5 than Dose 1” value ([5]; 15 mg 6-hourly iv infusions) was “approximately 25%”. For the same compound, the “dose proportionality of exposure (Cmax, AUC0-t, AUC0-∞)” value ([5]; 15, 30 and 45 mg single iv infusions) was “directly dose-proportional”, the concentration at 6 h ([5]; both sexes, human, plasma, 15 mg/70 kg, 6 hours after each dose, 15 mg 6-hourly iv, read-out: trough levels) was 63.9 ± 16.5 ng/mL and the clearance [5, 6] was 119 mL/min. It also gave an AUC(0-t) ([5]; both sexes, human, plasma, intravenous, 15 mg/70 kg, multiple dose, Dose 1-15 mg, Geometric Mean, read-out: AUC0-6) of 1910 ng·h/mL, an AUC(0-inf) ([5]; both sexes, human, plasma, intravenous, 15 mg/70 kg, multiple dose, Dose 1-15 mg, Geometric Mean, read-out: AUC0-∞) of 2110 ng·h/mL and a Cmax ([5]; both sexes, human, plasma, intravenous, 15 mg/70 kg, multiple dose, Dose 1-15 mg, Geometric Mean, read-out: Cmax) of 1840 ng/mL. For the same compound, the MRT inf [5, 6] was 2.07 h, the Vd [5, 6] was 14.7 L and the half-life [5, 6] was 1.71 h. For the same compound, the clearance [5, 7] was 119 mL/min, the AUC(0-t) ([5]; both sexes, human, plasma, intravenous, 15 mg/70 kg, multiple dose, Dose 1-15 mg, Mean, read-out: AUC0-6) was 1920 ng·h/mL and the AUC(0-inf) ([5]; both sexes, human, plasma, intravenous, 15 mg/70 kg, multiple dose, Dose 1-15 mg, Mean, read-out: AUC0-∞) was 2130 ng·h/mL. For the same compound, the Cmax ([5]; both sexes, human, plasma, intravenous, 15 mg/70 kg, multiple dose, Dose 1-15 mg, Mean, read-out: Cmax) was 1980 ng/mL, the MRT inf [5, 7] was 2.1 h and the Vd [5, 7] was 14.8 L. For the same compound, the half-life [5, 7] was 1.73 h, the clearance [5, 8] was 113 mL/min and the AUC(0-t) ([5]; both sexes, human, plasma, intravenous, 15 mg/70 kg, multiple dose, Dose 1-15 mg, Median, read-out: AUC0-6) was 1950 ng·h/mL. The AUC(0-inf) ([5]; both sexes, human, plasma, intravenous, 15 mg/70 kg, multiple dose, Dose 1-15 mg, Median, read-out: AUC0-∞) was 2210 ng·h/mL, the Cmax ([5]; both sexes, human, plasma, intravenous, 15 mg/70 kg, multiple dose, Dose 1-15 mg, Median, read-out: Cmax) was 2090 ng/mL and the MRT inf [5, 8] was 2.17 h. The Vd [5, 8] was 14.2 L, the half-life [5, 8] was 1.65 h and the AUC ([5]; both sexes, human, plasma, intravenous, 15 mg/70 kg, multiple dose, Dose 5-15 mg, Geometric Mean, read-out: AUC24-30) was 2070 ng·h/mL. It also gave an AUC ([5]; both sexes, human, plasma, intravenous, 15 mg/70 kg, multiple dose, Dose 5-15 mg, Geometric Mean, read-out: AUC24-∞) of 2170 ng·h/mL, a Cmax ([5]; both sexes, human, plasma, intravenous, 15 mg/70 kg, multiple dose, Dose 5-15 mg, Geometric Mean, read-out: Cmax) of 2290 ng/mL and a Vd [5, 9] of 11.9 L. The half-life [5, 9] was 1.49 h, the AUC ([5]; both sexes, human, plasma, intravenous, 15 mg/70 kg, multiple dose, Dose 5-15 mg, Mean, read-out: AUC24-30) was 2080 ng·h/mL and the AUC ([5]; both sexes, human, plasma, intravenous, 15 mg/70 kg, multiple dose, Dose 5-15 mg, Mean, read-out: AUC24-∞) was 2180 ng·h/mL. It also gave a Cmax ([5]; both sexes, human, plasma, intravenous, 15 mg/70 kg, multiple dose, Dose 5-15 mg, Mean, read-out: Cmax) of 2370 ng/mL, a Vd [5, 10] of 12 L and a half-life [5, 10] of 1.5 h. The AUC ([5]; both sexes, human, plasma, intravenous, 15 mg/70 kg, multiple dose, Dose 5-15 mg, Median, read-out: AUC24-30) was 2090 ng·h/mL, the AUC ([5]; both sexes, human, plasma, intravenous, 15 mg/70 kg, multiple dose, Dose 5-15 mg, Median, read-out: AUC24-∞) was 2210 ng·h/mL and the Cmax ([5]; both sexes, human, plasma, intravenous, 15 mg/70 kg, multiple dose, Dose 5-15 mg, Median, read-out: Cmax) was 2370 ng/mL. For the same compound, the Vd [5, 11] was 12.2 L, the half-life [5, 11] was 1.56 h and the AUC(0-t) ([5]; both sexes, human, plasma, intravenous, 15 mg/70 kg, single 5 min infusion 15 mg/70 kg, read-out: AUC0-t, Geometric LS means) was 1760 ng·h/mL. The AUC(0-inf) ([5]; both sexes, human, plasma, intravenous, 15 mg/70 kg, single 5 min infusion 15 mg/70 kg, read-out: AUC0-∞, Geometric LS means) was 1880 ng·h/mL, the Cmax ([5]; both sexes, human, plasma, intravenous, 15 mg/70 kg, single 5 min infusion 15 mg/70 kg, read-out: Cmax, Geometric LS means) was 1740 ng/mL and the AUC(0-t) ([5]; both sexes, human, plasma, intravenous, 30 mg/70 kg, single 5 min infusion 30 mg/70 kg, read-out: AUC0-t, Geometric LS means) was 3880 ng·h/mL. It also gave an AUC(0-inf) ([5]; both sexes, human, plasma, intravenous, 30 mg/70 kg, single 5 min infusion 30 mg/70 kg, read-out: AUC0-∞, Geometric LS means) of 3970 ng·h/mL, a Cmax ([5]; both sexes, human, plasma, intravenous, 30 mg/70 kg, single 5 min infusion 30 mg/70 kg, read-out: Cmax, Geometric LS means) of 3700 ng/mL and an AUC(0-t) ([5]; both sexes, human, plasma, intravenous, 45 mg/70 kg, single 5 min infusion 45 mg/70 kg, read-out: AUC0-t, Geometric LS means) of 5750 ng·h/mL. For the same compound, the AUC(0-inf) ([5]; both sexes, human, plasma, intravenous, 45 mg/70 kg, single 5 min infusion 45 mg/70 kg, read-out: AUC0-∞, Geometric LS means) was 5850 ng·h/mL, the Cmax ([5]; both sexes, human, plasma, intravenous, 45 mg/70 kg, single 5 min infusion 45 mg/70 kg, read-out: Cmax, Geometric LS means) was 5720 ng/mL and the clearance ([5]; both sexes, human, plasma, iv, 15 mg/70 kg, single 5 min iv infusion 15 mg, Geometric Mean) was 131 mL/min. The AUC(0-inf) ([5]; both sexes, human, plasma, iv, 15 mg/70 kg, single 5 min iv infusion 15 mg, Geometric Mean, read-out: AUC0-∞) was 1910 ng·h/mL and the Cmax ([5]; both sexes, human, plasma, iv, 15 mg/70 kg, single 5 min iv infusion 15 mg, Geometric Mean, read-out: Cmax) was 1750 ng/mL.

— patent US20110294843A1, “ADMINISTRATION SCHEME OF POLAR OPIOID METABOLITES FOR POST-OPERATIVE PAIN MANAGEMENT” (PAION UK Limited, priority 2008, published 2011)
